The values that follow come from patent US20260008775A1, “AZOLE MODULATORS OF CHOLESTEROL BIOSYNTHESIS AND THEIR USE FOR PROMOTING REMYELINATION” (GENENTECH, INC., priority 2022, published 2026).

The term EC50 denotes the concentration at which the effect is half-maximal. Usually Ki stands for a dissociation constant, usually derived from enzyme kinetics or from competition with a known ligand.

Assay [1] has as its system zymostenol accumulation (EBP) in EpiSC-derived OPCs. In words: GC/MS-based sterol profiling, zymostenol accumulation in EpiSC-derived OPCs. Format: cell-based, mouse. Particulars: for EC50: Mus musculus, 24 h, EpiSC-derived OPCs, 24 hr, 8 doses from 0.15 nM to 333 nM, read-out: Mouse Zymostenol GCMS EC50. Summed up: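 Mouse epiblast stem cell-derived OPCs plated at 100,000 cells/well in growth-factor-free N2B27 and treated 24 h. Sterols extracted by modified Folch wash, silylated with BSTFA, and quantified by electron-impact GC/MS against cholesterol-d7 (zymostenol ion 458). Zymostenol normalised to 24 h 100 nM positive-control reference.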

A further assay deals with EpiSC-derived OPCs. The assay is described as follows: In vitro phenotypic screening of OPCs, MBP high-content imaging (percentage of oligodendrocytes). It is filed as cell-based, mouse. As to conditions: for EC50: Mus musculus, 72 h, 3 days, MBP stain, dose-response 0.5 nM to 1000 nM, read-out: OPC EC50. Summed up:
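Mouse epiblast stem cell-derived OPCs were plated without growth factors and given 8-point doses (1000 nM to 0.5 nM, 0.1% DMSO final) for 3 days at 37 °C. MBP/DAPI immunostaining and high-content imaging gave the percentage of oligodendrocytes. EC50 came from a Hill-equation fit.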

The target of assay [2] is human emopamil binding protein and human 7-dehydrocholesterol reductase (hEBP-DHCR7) (Homo sapiens (Human), UniProt Q15125). The assay is described as follows: hEBP-DHCR7 radioligand binding assay (filter binding, membranes of co-expressing HEK293 cells). As to conditions: for Ki: competition with [3H] radioligand, 8 doses 0.06 to 5000 nM, Ki calculated from IC50. Put shortly: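 Membranes from HEK293 cells transiently co-expressing hEBP and DHCR7 (10 μg/well) were incubated for 3 h at 22 °C with tritiated spiro-sulfone radioligand (added at 25 nM) and compound at 1 μM or 0.06–5000 nM. Filtration and scintillation counting followed. Inhibition was normalised to 5 μM unlabelled ligand and DMSO, and Ki was derived as IC50/(1+[L]/Kd).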
Sequence of human emopamil binding protein and human 7-dehydrocholesterol reductase (hEBP-DHCR7) (Q15125 whole entry): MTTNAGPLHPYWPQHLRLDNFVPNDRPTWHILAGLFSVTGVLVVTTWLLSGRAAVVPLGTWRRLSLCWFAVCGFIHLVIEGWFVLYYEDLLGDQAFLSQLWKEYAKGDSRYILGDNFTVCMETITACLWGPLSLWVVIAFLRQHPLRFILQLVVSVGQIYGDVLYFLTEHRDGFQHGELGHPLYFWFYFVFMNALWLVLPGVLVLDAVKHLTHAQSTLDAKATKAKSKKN

In the case of `CC(C)n1nc(-c2cncc(C(F)(F)F)c2)cc1[C@H]1[C@@H]2C[C@H](N3CCO[C@@H](C)C3)C[C@@H]21` (single isomer, unassigned) [41*], the EC50 in assay [1] turned out to be 2.86 nM; with EpiSC-derived OPCs it was 7.75 nM. For the same molecule, in assay [2], the Ki was 22.6 nM.

Consider `CC(C)n1nc(-c2cncc(C(F)(F)F)c2)cc1[C@H]1[C@@H]2C[C@H](N3C[C@H]4C[C@@H]3CO4)C[C@@H]21` (single isomer, unassigned) [37*], for which the values for the EC50 (in assay [1]; in the assay with EpiSC-derived OPCs) were 18 nM and 98 nM, respectively. In addition, the Ki in assay [2] was 33 nM.

Regarding `CCn1nc(-c2cncc(C(F)(F)F)c2)cc1[C@H]1[C@@H]2C[C@@H](N3CCCOCC3)C[C@@H]21` [Compound 53, 4-((1R,3s,5S,6r)-6-(1-Ethyl-3-(5-(trifluoromethyl)pyridin-3-yl)-1H-pyrazol-5-yl)bicyclo[3.1.0]hexan-3-yl)-1,4-oxazepane], the EC50 in assay [1] was found to be 13.8 nM; in the assay with EpiSC-derived OPCs, 75 nM. In addition, the Ki in assay [2] was 12.5 nM.

`CC(C)n1nc([C@H]2CC[C@H](C(F)(F)F)CC2)nc1[C@H]1[C@@H]2C[C@@H](N3CCOC[C@H]3C)C[C@@H]21` (single isomer, unassigned) [Compound 165*]: the values for the EC50 (in assay [1]; in the assay with EpiSC-derived OPCs) were 4.55 nM and 35 nM, respectively. For the same molecule, the Ki in assay [2] was 40.4 nM.

As to `CC(C)n1nc(-c2cccc(C(F)(F)F)n2)cc1[C@H]1[C@@H]2C[C@H](N3CCOCC3)C[C@@H]21` [Compound 32, 4-((1R,3r,5S,6r)-6-(1-isopropyl-3-(6-(trifluoromethyl)pyridin-2-yl)-1H-pyrazol-5-yl)bicyclo[3.1.0]hexan-3-yl)morpholine], the figures for the EC50 (in assay [1]; in the assay with EpiSC-derived OPCs) were 52 nM and 354 nM, respectively. In addition, in assay [2], the Ki was 34.5 nM.

For the molecule `CC(C)n1nc(-c2cncc(C(F)(F)F)c2)cc1[C@H]1CC[C@H](N2CCCOCC2)C1` (single isomer, unassigned) [63*], the EC50 in assay [1] amounted to 3.49 nM; in the assay with EpiSC-derived OPCs, 21.8 nM. In assay [2], the Ki was 14.4 nM.

On to `CC(C)n1nc(-c2cncc(C(F)(F)F)c2)nc1[C@H]1[C@@H]2C[C@H](N3CCOC[C@H]3C)C[C@@H]21` [Compound 120, (R)-4-((1R,3r,5S,6R)-6-(1-Isopropyl-3-(5-(trifluoromethyl)pyridin-3-yl)-1H-1,2,4-triazol-5-yl)bicyclo[3.1.0]hexan-3-yl)-3-methylmorpholine], for which the EC50 in assay [1] turned out to be 1.25 nM; in the assay with EpiSC-derived OPCs, 2.8 nM. In addition, the Ki in assay [2] is 16 nM.

On to `CC(C)n1nc(-c2cncc(C(F)(F)F)c2)cc1[C@H]1[C@@H]2CC(N3CCCOCC3)C[C@@H]21` (single isomer, unassigned) [30*], for which the EC50 in assay [1] worked out at 14.8 nM; with EpiSC-derived OPCs it was 90 nM. In addition, the Ki in assay [2] is 32.5 nM.

Consider `CC(C)n1nc(-c2cncc(C(F)(F)F)c2)cc1[C@H]1[C@@H]2C[C@@H](N3C[C@H]4C[C@@H]3CO4)C[C@@H]21` (single isomer, unassigned) [35*], for which the EC50 in assay [1] came to 30 nM; with EpiSC-derived OPCs it was 175 nM. The Ki in assay [2] was 112 nM.

As for `CC(C)n1nc(-c2ccccc2F)cc1[C@H]1[C@@H]2C[C@@H](N3CCCOCC3)C[C@@H]21` [Compound 194*, 4-((1R,3s,5S,6r)-6-(3-(2-fluorophenyl)-1-isopropyl-1H-pyrazol-5-yl)bicyclo[3.1.0]hexan-3-yl)-1,4-oxazepane], the EC50 came to 42.3 nM in assay [1] and 131 nM with EpiSC-derived OPCs. For the same molecule, the Ki in assay [2] is 13.1 nM.

Consider `CC(C)n1nc(-c2ccc(C(F)(F)F)nc2)cc1[C@H]1[C@@H]2C[C@@H](N3CCCOCC3)C[C@@H]21` [Compound 47, 4-((1R,3S,5S,6R)-6-(1-Isopropyl-3-(6-(trifluoromethyl)pyridin-3-yl)-1H-pyrazol-5-yl)bicyclo[3.1.0]hexan-3-yl)-1,4-oxazepane], for which the results for the EC50 (in assay [1]; with EpiSC-derived OPCs) were 46 nM and 145 nM, respectively. Moreover, the Ki in assay [2] is 43 nM.

As for `CC(C)n1nc(-c2cccc(C(F)(F)F)n2)nc1[C@H]1[C@@H]2C[C@@H](N3CCOC[C@H]3C)C[C@@H]21` [Compound 72, (R)-4-((1R,3s,5S,6R)-6-(1-Isopropyl-3-(6-(trifluoromethyl)pyridin-2-yl)-1H-1,2,4-triazol-5-yl)bicyclo[3.1.0]hexan-3-yl)-3-methylmorpholine], the EC50 in assay [1] is 333 nM; in the assay on EpiSC-derived OPCs it was 980 nM. Moreover, the Ki in assay [2] was 1170 nM.

As to `CC(C)n1nc(-c2ccc(C(F)(F)F)nc2)nc1[C@@H]1CC[C@@H](N2CCOCC2)C1` [Compound 104, 4-((1R,3R)-3-(1-Isopropyl-3-(6-(trifluoromethyl)pyridin-3-yl)-1H-1,2,4-triazol-5-yl)cyclopentyl)morpholine], the EC50 was 52 nM in assay [1] and 433 nM in the assay with EpiSC-derived OPCs. Besides, in assay [2], the Ki was 19.2 nM.

Regarding `CC(C)n1nc(-c2ccc(C(F)(F)F)c(F)c2)nc1[C@@H]1CC[C@@H](N2CCOCC2)C1` (single isomer, unassigned) [Compound 114*], the values for the EC50 (in assay [1]; in the assay on EpiSC-derived OPCs) were 8 nM and 25.7 nM, respectively. Moreover, the Ki in assay [2] was 14.7 nM.

In the case of `CC(C)n1nc(-c2cccc(C(F)(F)F)n2)nc1[C@@H]1CCC(N2CCOCC2)C1` (stereo in doubt) [26*, 4-((1S,3R)-3-(1-isopropyl-3-(6-(trifluoromethyl)pyridin-2-yl)-1H-1,2,4-triazol-5-yl)cyclopentyl)morpholine], the EC50 in assay [1] came to 11.7 nM; with EpiSC-derived OPCs, 85 nM. For the same molecule, the Ki in assay [2] was 22.6 nM.

As for `CC(C)n1nc(-c2cccc(OC(F)F)c2)cc1[C@H]1[C@@H]2C[C@H](N3CCCOCC3)C[C@@H]21` (single isomer, unassigned) [Compound 199*], the 50% effective concentration (EC50) in assay [1] worked out at 2.06 nM; in the assay with EpiSC-derived OPCs, 4.01 nM. Also, the Ki in assay [2] was 8.2 nM.

`CC(C)n1nc(-c2cncc(C(F)(F)F)c2)cc1[C@@H]1CC[C@H](N2CCCOCC2)C1` (single isomer, unassigned) [62*]: the EC50 in assay [1] came out at 1.73 nM; with EpiSC-derived OPCs it was 18.3 nM. Besides, in assay [2], the Ki is 13.1 nM.

Regarding `CC(C)n1nc(-c2cnc(N)c(C(F)(F)F)c2)cc1[C@H]1[C@@H]2C[C@@H](N3CCOCC3)C[C@@H]21` [Compound A, reference compound], the EC50 in assay [1] is 1400 nM; in the assay with EpiSC-derived OPCs, 3000 nM. In assay [1] (as compared to compound 202), the “fold decrease in activity in the mouse zymostenol assay” value is on record as 5.9 fold. The “fold decrease in activity in the OPC assay” value with EpiSC-derived OPCs (as compared to compound 202) is listed as 4.1 fold. In assay [2] (as compared to compound 202 (no amine group on Ring B)), the “fold decrease in EBP inhibition” value is 19.5 fold. The Ki in assay [2] is 3670 nM.

Turning to `CC(C)n1nc(-c2ccc(C(F)(F)F)nc2)cc1[C@@H]1CC[C@H](N2CCN(CCO)CC2)C1` (single isomer, unassigned) [87*], the EC50 in assay [1] stood at 16.4 nM; in the assay on EpiSC-derived OPCs, 48.9 nM. Further, in assay [2], the Ki is 26.2 nM.

For the molecule `CC(C)n1nc(-c2cccc(F)c2)cc1[C@H]1[C@@H]2C[C@@H](N3CCCOCC3)C[C@@H]21` [Compound 196*, 4-((1R,3s,5S,6r)-6-(3-(3-fluorophenyl)-1-isopropyl-1H-pyrazol-5-yl)bicyclo[3.1.0]hexan-3-yl)-1,4-oxazepane], the results for the EC50 (in assay [1]; in the assay with EpiSC-derived OPCs) were 13.3 nM and 46.2 nM, respectively. Moreover, the Ki in assay [2] is 12.7 nM.

In the case of `CC(C)n1nc(-c2cnc(C(F)(F)F)nc2)nc1[C@H]1CC[C@@H](N2CCOCC2)C1` [Compound 95, 4-((1R,3S)-3-(1-Isopropyl-3-(2-(trifluoromethyl)pyrimidin-5-yl)-1H-1,2,4-triazol-5-yl)cyclopentyl)morpholine], the EC50 came out at 20.3 nM in assay [1] and 136 nM in the assay with EpiSC-derived OPCs. The Ki in assay [2] was 33.3 nM.
